According to patent publication US20250171420A1 (Monte Rosa Therapeutics, Inc., priority 2022, published 2025):

The compounds below were run against T1, CK1α (Homo sapiens, UniProt P48729) (assay: CK1α NanoBit Assay (HiBiT-tagged CSNK1A1, HEK293 clonal lines)). Settings: HEK293 HiBiT-CSNK1A1/LgBiT cells, 24 h incubation.
T1 construct: HEK293 clonal lines with CRISPR KI HiBiT tag on CSNK1A1
Type: cell-based
Experimental: HEK293 clonal lines with CRISPR KI HiBiT tag on CSNK1A1 and stably expressing LgBiT protein were obtained from Promega (Madison, WI). […] Cells were incubated at 37° C., 5% CO2 for 24 hours and then signal was read on a Pherastar FSX using “LUM plus” optic module.
Data analysis was performed in Scinamic (Scinamic, Cambridge, MA). Luminescence response (R) was calculated by the formula: response=100*(S−N)/(P−N) where S is the signal of the well, N and P the mean negative and positive control values respectively of the same plate.
DC50 data are reported in Table 2 for compounds in Table 1. In Table 2 below, According to the code, A represents a DC50 value of ≤0.1 μM, B represents a DC50 value>0.1 μM and ≤1 μM, C represents an DC50 value>1 μM.

T1 sequence (P48729 whole entry): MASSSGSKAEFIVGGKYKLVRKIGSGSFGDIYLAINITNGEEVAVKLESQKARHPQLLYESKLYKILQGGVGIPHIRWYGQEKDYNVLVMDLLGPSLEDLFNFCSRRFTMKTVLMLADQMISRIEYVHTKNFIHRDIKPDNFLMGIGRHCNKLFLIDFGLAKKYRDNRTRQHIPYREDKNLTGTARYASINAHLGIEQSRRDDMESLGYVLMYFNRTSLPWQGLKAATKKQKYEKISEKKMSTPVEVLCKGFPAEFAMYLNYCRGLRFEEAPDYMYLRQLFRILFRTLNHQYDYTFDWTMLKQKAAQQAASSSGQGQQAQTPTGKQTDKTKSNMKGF
T1 sequence (Q96SW2 whole entry, further chain): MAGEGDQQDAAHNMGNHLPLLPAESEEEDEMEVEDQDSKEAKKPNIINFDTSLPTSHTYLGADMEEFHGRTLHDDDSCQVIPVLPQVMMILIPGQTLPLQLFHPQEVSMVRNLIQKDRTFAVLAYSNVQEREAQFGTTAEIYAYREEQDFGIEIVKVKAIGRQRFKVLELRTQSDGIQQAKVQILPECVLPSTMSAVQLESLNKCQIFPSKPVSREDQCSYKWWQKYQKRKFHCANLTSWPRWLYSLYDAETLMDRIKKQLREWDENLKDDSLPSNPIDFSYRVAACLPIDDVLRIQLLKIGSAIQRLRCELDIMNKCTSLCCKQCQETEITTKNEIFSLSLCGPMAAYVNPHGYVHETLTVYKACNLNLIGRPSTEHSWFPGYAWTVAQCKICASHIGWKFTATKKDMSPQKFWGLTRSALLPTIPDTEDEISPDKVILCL
T1 sequence (Q16531 2-1140 partner limits assumed): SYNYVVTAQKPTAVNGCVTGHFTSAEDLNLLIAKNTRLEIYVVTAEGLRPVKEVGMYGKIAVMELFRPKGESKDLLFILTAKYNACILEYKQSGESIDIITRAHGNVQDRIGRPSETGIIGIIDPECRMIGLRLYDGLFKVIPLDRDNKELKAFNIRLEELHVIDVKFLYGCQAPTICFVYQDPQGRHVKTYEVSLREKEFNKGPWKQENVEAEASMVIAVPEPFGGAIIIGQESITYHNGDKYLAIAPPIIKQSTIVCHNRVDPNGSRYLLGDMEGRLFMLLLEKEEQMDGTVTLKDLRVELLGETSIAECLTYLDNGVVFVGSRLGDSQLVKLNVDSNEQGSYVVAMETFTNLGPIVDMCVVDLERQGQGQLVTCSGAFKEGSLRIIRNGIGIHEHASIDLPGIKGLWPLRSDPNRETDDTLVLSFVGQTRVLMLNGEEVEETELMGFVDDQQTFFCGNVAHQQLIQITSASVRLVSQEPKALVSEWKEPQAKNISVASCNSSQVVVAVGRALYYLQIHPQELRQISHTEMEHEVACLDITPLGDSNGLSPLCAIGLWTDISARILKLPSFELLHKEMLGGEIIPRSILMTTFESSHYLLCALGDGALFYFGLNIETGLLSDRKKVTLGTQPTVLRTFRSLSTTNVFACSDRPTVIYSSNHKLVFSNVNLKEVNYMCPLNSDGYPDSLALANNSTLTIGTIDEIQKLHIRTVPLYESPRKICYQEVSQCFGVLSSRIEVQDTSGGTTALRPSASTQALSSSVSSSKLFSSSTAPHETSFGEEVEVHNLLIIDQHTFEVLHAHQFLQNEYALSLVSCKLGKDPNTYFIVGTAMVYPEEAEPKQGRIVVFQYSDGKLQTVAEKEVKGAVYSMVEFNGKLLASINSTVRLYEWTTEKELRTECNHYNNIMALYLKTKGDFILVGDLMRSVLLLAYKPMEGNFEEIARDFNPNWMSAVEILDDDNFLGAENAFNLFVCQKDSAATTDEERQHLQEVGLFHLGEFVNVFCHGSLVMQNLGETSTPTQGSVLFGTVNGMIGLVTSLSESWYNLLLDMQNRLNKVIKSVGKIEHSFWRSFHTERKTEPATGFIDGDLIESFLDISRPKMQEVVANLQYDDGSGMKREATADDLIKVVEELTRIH

Row | DC50 [µM] | SMILES
1 | < 0.1 | O=C1CCC(N2Cc3cc(NC(=O)N4CCc5ccc(F)cc5C4)ccc3C2=O)C(=O)N1 (centres unmarked) [Compound 180]
2 | < 0.1 | O=C1CCC(N2Cc3cc(NC(=O)N4CCc5cc(F)ccc5C4)ccc3C2=O)C(=O)N1 (centres unmarked) [Compound 193]
3 | > 1 | O=C1CCC(N2Cc3cc(NC(=O)N4CCc5cnccc5C4)ccc3C2=O)C(=O)N1 (centres unmarked) [Compound 207]
4 | < 0.1 | O=C1CCC(N2Cc3cc(NC(=O)N4CCc5cccc(C(F)(F)F)c5C4)ccc3C2=O)C(=O)N1 (centres unmarked) [Compound 212]
5 | < 0.1 | O=C1CCC(N2Cc3cc(NC(=O)N4CCCCC4C(F)(F)F)ccc3C2=O)C(=O)N1 (centres unmarked) [Compound 219]
6 | > 1 | O=C1CCC(N2Cc3cc(NC(=O)N4CCC(c5cnccn5)C4)ccc3C2=O)C(=O)N1 (centres unmarked) [Compound 223]
7 | 0.1 to 1 | Cc1ccc(C2CCCN2C(=O)Nc2ccc3c(c2)CN(C2CCC(=O)NC2=O)C3=O)cn1 (centres unmarked) [Compound 224]
8 | > 1 | Cc1cccc(C2(O)CN(C(=O)Nc3ccc4c(c3)CN(C3CCC(=O)NC3=O)C4=O)C2)c1 (centres unmarked) [Compound 225]
9 | > 1 | O=C1CCC(N2Cc3cc(NC(=O)N4CCC(c5ncccn5)C4)ccc3C2=O)C(=O)N1 (centres unmarked) [Compound 229]
10 | 0.1 to 1 | O=C1CCC(N2Cc3cc(NC(=O)N4C[C@H]5CC4[C@H](c4ccccc4)C5)ccc3C2=O)C(=O)N1 (some centres unmarked) [Compound 230]
11 | 0.1 to 1 | CC(C)C1(c2ccccc2)CN(C(=O)Nc2ccc3c(c2)CN(C2CCC(=O)NC2=O)C3=O)C1 (centres unmarked) [Compound 233]
12 | < 0.1 | CC(C)[C@]12C[C@H]1CN(C(=O)Nc1ccc3c(c1)CN(C1CCC(=O)NC1=O)C3=O)C2 (some centres unmarked) [Compound 235]
13 | 0.1 to 1 | O=C1CCC(N2Cc3cc(NC(=O)N4CCC(c5ccc(F)cn5)C4)ccc3C2=O)C(=O)N1 (centres unmarked) [Compound 239]
14 | > 1 | Cn1cc(N2CCN(C(=O)Nc3ccc4c(c3)CN(C3CCC(=O)NC3=O)C4=O)CC2)cn1 (centres unmarked) [Compound 243]
15 | 0.1 to 1 | N#Cc1ccc(C2CN(C(=O)Nc3ccc4c(c3)CN(C3CCC(=O)NC3=O)C4=O)C2)cc1 (centres unmarked) [Compound 244]
16 | 0.1 to 1 | O=C1CCC(N2Cc3cc(NC(=O)N4CCC(c5nccs5)C4)ccc3C2=O)C(=O)N1 (centres unmarked) [Compound 247]
17 | < 0.1 | O=C1CCC(N2Cc3cc(NC(=O)N4CCCC(C5CCC5)C4)ccc3C2=O)C(=O)N1 (centres unmarked) [Compound 248]
18 | > 1 | O=C1CCC(N2Cc3cc(NC(=O)N4CCN(c5cccnc5)CC4)ccc3C2=O)C(=O)N1 (centres unmarked) [Compound 249]
19 | > 1 | O=C1CCC(N2Cc3cc(NC(=O)N4CCC(O)CC4)ccc3C2=O)C(=O)N1 (centres unmarked) [Compound 251]
20 | < 0.1 | O=C1CCC(N2Cc3cc(NC(=O)N4CCCCC4c4ccccc4)ccc3C2=O)C(=O)N1 (centres unmarked) [Compound 253]
21 | 0.1 to 1 | CC1CN(c2ccccc2)CCN1C(=O)Nc1ccc2c(c1)CN(C1CCC(=O)NC1=O)C2=O (centres unmarked) [Compound 257]

More lines, now with the values behind:

Row | SMILES | DC50 [µM]
22 | O=C1CCC(N2Cc3cc(NC(=O)N4CC5CC5c5cc(Br)ccc54)ccc3C2=O)C(=O)N1 (centres unmarked) [Compound 173] | < 0.1
23 | Cc1ccc2c(c1)CN(C(=O)Nc1ccc3c(c1)CN(C1CCC(=O)NC1=O)C3=O)C2 (centres unmarked) [Compound 175] | < 0.1
24 | N#Cc1cccc2c1CCN(C(=O)Nc1ccc3c(c1)CN(C1CCC(=O)NC1=O)C3=O)C2 (centres unmarked) [Compound 176] | 0.1 to 1
25 | O=C1CCC(N2Cc3cc(NC(=O)N4Cc5ccc(Cl)cc5C4)ccc3C2=O)C(=O)N1 (centres unmarked) [Compound 177] | < 0.1
26 | CC(C)(C)c1ccc2c(c1)CN(C(=O)Nc1ccc3c(c1)CN(C1CCC(=O)NC1=O)C3=O)CC2 (centres unmarked) [Compound 179] | < 0.1
27 | CC(C)C1c2ccccc2CCN1C(=O)Nc1ccc2c(c1)CN(C1CCC(=O)NC1=O)C2=O (centres unmarked) [Compound 181] | < 0.1
28 | O=C1CCC(N2Cc3cc(NC(=O)N4Cc5cccc(Cl)c5C4)ccc3C2=O)C(=O)N1 (centres unmarked) [Compound 182] | < 0.1
29 | O=C1CCC(N2Cc3cc(NC(=O)N4CCc5ccc(-c6ccccc6)cc5C4)ccc3C2=O)C(=O)N1 (centres unmarked) [Compound 183] | < 0.1
30 | O=C1CCC(N2Cc3cc(NC(=O)N4CCc5c(F)cccc5C4)ccc3C2=O)C(=O)N1 (centres unmarked) [Compound 184] | < 0.1
31 | CC(C)(C)c1ccc2c(c1)CCN(C(=O)Nc1ccc3c(c1)CN(C1CCC(=O)NC1=O)C3=O)C2 (centres unmarked) [Compound 194] | < 0.1
32 | O=C1CCC(N2Cc3cc(NC(=O)N4CCc5cccnc5C4)ccc3C2=O)C(=O)N1 (centres unmarked) [Compound 195] | 0.1 to 1
33 | O=C1CCC(N2Cc3cc(NC(=O)N4Cc5ccccc5C(C(F)(F)F)C4)ccc3C2=O)C(=O)N1 (centres unmarked) [Compound 196] | < 0.1
34 | COc1ccc2c(c1)CN(C(=O)Nc1ccc3c(c1)CN(C1CCC(=O)NC1=O)C3=O)C2 (centres unmarked) [Compound 199] | < 0.1
35 | CC1(C)CN(C(=O)Nc2ccc3c(c2)CN(C2CCC(=O)NC2=O)C3=O)Cc2ccccc21 (centres unmarked) [Compound 200] | < 0.1
36 | O=C1CCC(N2Cc3cc(NC(=O)N4Cc5cccc(F)c5C4)ccc3C2=O)C(=O)N1 (centres unmarked) [Compound 202] | < 0.1
37 | O=C1CCC(N2Cc3cc(NC(=O)N4Cc5ccccc5C(F)(F)C4)ccc3C2=O)C(=O)N1 (centres unmarked) [Compound 204] | < 0.1
38 | O=C1CCC(N2Cc3cc(NC(=O)N4Cc5ccccc5C(n5cccn5)C4)ccc3C2=O)C(=O)N1 (centres unmarked) [Compound 206] | 0.1 to 1
39 | CCC1c2ccccc2CN1C(=O)Nc1ccc2c(c1)CN(C1CCC(=O)NC1=O)C2=O (centres unmarked) [Compound 208] | < 0.1
40 | O=C1CCC(N2Cc3cc(NC(=O)N4CCc5ccccc5C4c4ccccc4)ccc3C2=O)C(=O)N1 (centres unmarked) [Compound 211] | < 0.1
41 | N#Cc1cccc2c1CN(C(=O)Nc1ccc3c(c1)CN(C1CCC(=O)NC1=O)C3=O)C2 (centres unmarked) [Compound 213] | 0.1 to 1
42 | O=C1CCC(N2Cc3cc(NC(=O)N4Cc5ccccc5CC4c4ccccc4)ccc3C2=O)C(=O)N1 (centres unmarked) [Compound 215] | < 0.1
43 | O=C1CCC(N2Cc3cc(NC(=O)N4CC(c5ccccc5F)C4)ccc3C2=O)C(=O)N1 (centres unmarked) [Compound 217] | < 0.1
44 | O=C1CCC(N2Cc3cc(NC(=O)N4C5CCCC4C5)ccc3C2=O)C(=O)N1 (centres unmarked) [Compound 218] | < 0.1
45 | O=C1CCC(N2Cc3cc(NC(=O)N4C[C@@H]5[C@H]6CC[C@H](C6)[C@@H]5C4)ccc3C2=O)C(=O)N1 (some centres unmarked) [Compound 220] | < 0.1
46 | O=C1CCC(N2Cc3cc(NC(=O)N4CCC5CC54)ccc3C2=O)C(=O)N1 (centres unmarked) [Compound 221] | 0.1 to 1

Row | SMILES | DC50 [µM]
47 | Cn1cc(C2CCN(C(=O)Nc3ccc4c(c3)CN(C3CCC(=O)NC3=O)C4=O)C2)cn1 (centres unmarked) [Compound 222] | > 1
48 | Cc1cccc(C2CN(C(=O)Nc3ccc4c(c3)CN(C3CCC(=O)NC3=O)C4=O)C2)c1 (centres unmarked) [Compound 226] | < 0.1
49 | Cc1ccccc1C1CN(C(=O)Nc2ccc3c(c2)CN(C2CCC(=O)NC2=O)C3=O)C1 (centres unmarked) [Compound 227] | < 0.1
50 | Cc1ccc(C2CN(C(=O)Nc3ccc4c(c3)CN(C3CCC(=O)NC3=O)C4=O)C2)cc1 (centres unmarked) [Compound 228] | < 0.1
51 | O=C1CCC(N2Cc3cc(NC(=O)N4CC(c5ccc(Cl)cc5)C4)ccc3C2=O)C(=O)N1 (centres unmarked) [Compound 231] | < 0.1
52 | O=C1CCC(N2Cc3cc(NC(=O)N4CCCCC4C4CC4)ccc3C2=O)C(=O)N1 (centres unmarked) [Compound 232] | 0.1 to 1
53 | O=C1CCC(N2Cc3cc(NC(=O)N4CCN(C56CC(C5)C6)CC4)ccc3C2=O)C(=O)N1 (centres unmarked) [Compound 234] | > 1
54 | O=C1CCC(N2Cc3cc(NC(=O)N4CC5[C@@H](CCN5c5ccccc5)C4)ccc3C2=O)C(=O)N1 (some centres unmarked) [Compound 236] | 0.1 to 1
55 | O=C1CCC(N2Cc3cc(NC(=O)N4CC(CC(F)F)(c5ccccc5)C4)ccc3C2=O)C(=O)N1 (centres unmarked) [Compound 237] | 0.1 to 1
56 | O=C1CCC(N2Cc3cc(NC(=O)N4CC(c5cccc(F)c5)C4)ccc3C2=O)C(=O)N1 (centres unmarked) [Compound 238] | 0.1 to 1
57 | O=C1CCC(N2Cc3cc(NC(=O)N4C[C@@H]5C[C@]5(C(F)F)C4)ccc3C2=O)C(=O)N1 (some centres unmarked) [Compound 240] | 0.1 to 1
58 | O=C1CCC(N2Cc3cc(NC(=O)N4CC(c5cccc(C(F)(F)F)c5)C4)ccc3C2=O)C(=O)N1 (centres unmarked) [Compound 241] | 0.1 to 1
59 | O=C1CCC(N2Cc3cc(NC(=O)N4CCN(c5nccs5)CC4)ccc3C2=O)C(=O)N1 (centres unmarked) [Compound 242] | > 1
60 | O=C1CCC(N2Cc3cc(NC(=O)N4C[C@H](c5ccccc5)[C@H]4CO)ccc3C2=O)C(=O)N1 (some centres unmarked) [Compound 245] | 0.1 to 1
61 | Cc1ccnc(C2CCN(C(=O)Nc3ccc4c(c3)CN(C3CCC(=O)NC3=O)C4=O)CC2)n1 (centres unmarked) [Compound 246] | > 1
62 | Cn1nccc1C1CCCN(C(=O)Nc2ccc3c(c2)CN(C2CCC(=O)NC2=O)C3=O)C1 (centres unmarked) [Compound 250] | > 1
63 | CCC1(c2ccccc2)CN(C(=O)Nc2ccc3c(c2)CN(C2CCC(=O)NC2=O)C3=O)C1 (centres unmarked) [Compound 252] | 0.1 to 1
64 | O=C1CCC(N2Cc3cc(NC(=O)N4CCN(c5cnccn5)CC4)ccc3C2=O)C(=O)N1 (centres unmarked) [Compound 254] | > 1
65 | O=C1CCC(N2Cc3cc(NC(=O)N4CCCC5(CCC5)C4)ccc3C2=O)C(=O)N1 (centres unmarked) [Compound 255] | < 0.1
66 | CC1(c2ccccc2F)CN(C(=O)Nc2ccc3c(c2)CN(C2CCC(=O)NC2=O)C3=O)C1 (centres unmarked) [Compound 258] | 0.1 to 1
67 | CC1(c2ccccc2)CCCN(C(=O)Nc2ccc3c(c2)CN(C2CCC(=O)NC2=O)C3=O)C1 (centres unmarked) [Compound 259] | 0.1 to 1
68 | O=C1CCC(N2Cc3cc(NC(=O)N4CCC(c5ccccc5)C4)ccc3C2=O)C(=O)N1 (centres unmarked) [Compound 260] | < 0.1
69 | Cc1ccccc1N1CCN(C(=O)Nc2ccc3c(c2)CN(C2CCC(=O)NC2=O)C3=O)CC1 (centres unmarked) [Compound 261] | < 0.1
70 | O=C1CCC(N2Cc3cc(NC(=O)N4CCCC(O)C4)ccc3C2=O)C(=O)N1 (centres unmarked) [Compound 262] | > 1
71 | O=C1CCC(N2Cc3cc(NC(=O)N4CCC(c5ccccn5)C4)ccc3C2=O)C(=O)N1 (centres unmarked) [Compound 263] | 0.1 to 1
